Measured values from ChEMBL document CHEMBL1131869, “Chlorophenylmethyl benzothiadiazine dioxides derivatives: potent human cytomegalovirus inhibitors” (Bioorg Med Chem Lett, 1999).

Experiments:
[1] = test system: Human betaherpesvirus 5; assay: Cytotoxicity against Human cytomegalovirus (AD169) strain(HCMV); assay type: functional
[2] = test system: Human betaherpesvirus 5; assay: Antiviral activity against Human cytomegalovirus (AD169) strain(HCMV); assay type: functional, organism-based
[3] = test system: Human betaherpesvirus 5; assay: Antiviral activity against clinical isolates of human origin CMV-strain B; assay type: functional, organism-based
[4] = test system: Human betaherpesvirus 5; assay: Antiviral activity against clinical isolates of human origin CMV-strainA; assay type: functional, organism-based
[5] = test system: Human betaherpesvirus 5; assay: Antiviral activity against clinical isolates of human origin CMV-strainC; assay type: functional, organism-based

Structure (SMILES)	CC50 [1] [µM]	IC50 [2] [µM]	IC50 [3] [µM]	IC50 [4] [µM]	IC50 [5] [µM]
O=S1(=O)N=C(OCc2ccccc2)c2ccccc2N1Cc1ccccc1	> 66	7.9	–	–	–
O=C1c2ccccc2N(Cc2cccc(Cl)c2)S(=O)(=O)N1Cc1ccccc1	> 60	3.6	–	–	–
O=C1c2ccccc2N(Cc2ccc(Cl)cc2)S(=O)(=O)N1COCc1ccccc1	> 56	6.7	–	–	–
O=C1c2ccccc2N(Cc2ccccc2Cl)S(=O)(=O)N1Cc1ccccc1	> 60	4.8	–	–	–
O=C1c2ccccc2N(COCc2ccccc2)S(=O)(=O)N1COCc1ccccc1	> 57	34	–	–	–
O=C1c2ccccc2N(Cc2ccccc2Cl)S(=O)(=O)N1COCc1ccccc1	> 56	18	–	–	–
O=C1c2ccccc2N(Cc2ccc(Cl)cc2)S(=O)(=O)N1Cc1ccc(Cl)cc1	> 60	3.6	–	–	–
O=C1c2ccccc2N(Cc2ccccc2)S(=O)(=O)N1Cc1ccccc1	> 66	5.2	–	–	–
O=C1c2ccccc2N(Cc2ccccc2)S(=O)(=O)N1Cc1ccc(Cl)cc1	> 60	6	–	–	–
O=C1c2ccccc2N(Cc2ccc(Cl)cc2)S(=O)(=O)N1Cc1ccccc1	> 60	3.6	1.2	2.4	2.4
O=C1c2ccccc2N(Cc2ccccc2Cl)S(=O)(=O)N1Cc1ccccc1Cl	> 60	3.6	–	–	–
O=C1c2ccccc2N(Cc2ccccc2)S(=O)(=O)N1Cc1ccccc1Cl	> 60	12.1	–	–	–
Nc1nc2c(ncn2COC(CO)CO)c(=O)[nH]1 [GANCICLOVIR]	> 98	5.9	3.9	5.9	3.9
